One assay has as its target T1, JAK2 (Homo sapiens, UniProt O60674).
T1 construct: purchased Invitrogen
The assay can be described thus: Assay for JAK2 Inhibition (phosphorylation of FAM-labeled substrate, Caliper LC-3000). The format is biochemical. The note with it: −log10(IC50), IC50 is the molar concentration at 50% inhibition; read-out: JAK2 pIC50 (converted).

Another assay concerns the target T2, JAK3 (Homo sapiens, UniProt P52333).
T2 construct: purchased Invitrogen
T2 sequence (P52333 1-1124): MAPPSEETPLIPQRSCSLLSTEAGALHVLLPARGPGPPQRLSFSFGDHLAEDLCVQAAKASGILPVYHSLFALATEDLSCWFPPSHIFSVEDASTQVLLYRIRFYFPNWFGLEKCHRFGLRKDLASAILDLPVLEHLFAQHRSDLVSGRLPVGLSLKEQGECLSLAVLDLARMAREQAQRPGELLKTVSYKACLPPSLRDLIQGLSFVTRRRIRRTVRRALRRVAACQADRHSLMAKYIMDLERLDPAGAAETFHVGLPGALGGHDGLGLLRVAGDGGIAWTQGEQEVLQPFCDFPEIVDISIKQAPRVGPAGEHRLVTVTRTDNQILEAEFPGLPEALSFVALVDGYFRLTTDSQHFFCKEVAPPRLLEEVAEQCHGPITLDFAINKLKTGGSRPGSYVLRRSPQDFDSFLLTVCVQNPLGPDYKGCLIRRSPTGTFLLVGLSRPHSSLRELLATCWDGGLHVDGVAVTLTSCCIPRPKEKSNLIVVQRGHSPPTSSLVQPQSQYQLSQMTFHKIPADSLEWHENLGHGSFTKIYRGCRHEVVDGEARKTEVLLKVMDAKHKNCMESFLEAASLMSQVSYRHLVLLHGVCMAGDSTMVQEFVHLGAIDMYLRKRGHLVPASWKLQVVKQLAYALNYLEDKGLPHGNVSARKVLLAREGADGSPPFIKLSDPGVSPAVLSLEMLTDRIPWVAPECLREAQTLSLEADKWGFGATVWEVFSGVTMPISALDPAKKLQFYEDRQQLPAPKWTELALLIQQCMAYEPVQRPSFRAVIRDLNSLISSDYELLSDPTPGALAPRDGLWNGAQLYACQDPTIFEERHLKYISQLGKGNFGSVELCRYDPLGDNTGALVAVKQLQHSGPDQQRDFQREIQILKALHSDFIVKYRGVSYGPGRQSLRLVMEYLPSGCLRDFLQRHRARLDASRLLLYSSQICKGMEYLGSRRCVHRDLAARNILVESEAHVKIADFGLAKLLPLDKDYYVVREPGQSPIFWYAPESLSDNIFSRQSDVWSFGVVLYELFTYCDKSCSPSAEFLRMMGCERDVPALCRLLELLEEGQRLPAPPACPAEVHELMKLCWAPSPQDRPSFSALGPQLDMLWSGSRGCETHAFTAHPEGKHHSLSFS
The assay can be described thus: Assay for JAK3 Inhibition (phosphorylation of FAM-labeled substrate, Caliper LC-3000). The format is biochemical. The note with it: −log10(IC50), IC50 is the molar concentration at 50% inhibition; read-out: JAK3 pIC50 (converted).

The structures appear in SMILES notation.

T1 sequence (O60674 whole entry): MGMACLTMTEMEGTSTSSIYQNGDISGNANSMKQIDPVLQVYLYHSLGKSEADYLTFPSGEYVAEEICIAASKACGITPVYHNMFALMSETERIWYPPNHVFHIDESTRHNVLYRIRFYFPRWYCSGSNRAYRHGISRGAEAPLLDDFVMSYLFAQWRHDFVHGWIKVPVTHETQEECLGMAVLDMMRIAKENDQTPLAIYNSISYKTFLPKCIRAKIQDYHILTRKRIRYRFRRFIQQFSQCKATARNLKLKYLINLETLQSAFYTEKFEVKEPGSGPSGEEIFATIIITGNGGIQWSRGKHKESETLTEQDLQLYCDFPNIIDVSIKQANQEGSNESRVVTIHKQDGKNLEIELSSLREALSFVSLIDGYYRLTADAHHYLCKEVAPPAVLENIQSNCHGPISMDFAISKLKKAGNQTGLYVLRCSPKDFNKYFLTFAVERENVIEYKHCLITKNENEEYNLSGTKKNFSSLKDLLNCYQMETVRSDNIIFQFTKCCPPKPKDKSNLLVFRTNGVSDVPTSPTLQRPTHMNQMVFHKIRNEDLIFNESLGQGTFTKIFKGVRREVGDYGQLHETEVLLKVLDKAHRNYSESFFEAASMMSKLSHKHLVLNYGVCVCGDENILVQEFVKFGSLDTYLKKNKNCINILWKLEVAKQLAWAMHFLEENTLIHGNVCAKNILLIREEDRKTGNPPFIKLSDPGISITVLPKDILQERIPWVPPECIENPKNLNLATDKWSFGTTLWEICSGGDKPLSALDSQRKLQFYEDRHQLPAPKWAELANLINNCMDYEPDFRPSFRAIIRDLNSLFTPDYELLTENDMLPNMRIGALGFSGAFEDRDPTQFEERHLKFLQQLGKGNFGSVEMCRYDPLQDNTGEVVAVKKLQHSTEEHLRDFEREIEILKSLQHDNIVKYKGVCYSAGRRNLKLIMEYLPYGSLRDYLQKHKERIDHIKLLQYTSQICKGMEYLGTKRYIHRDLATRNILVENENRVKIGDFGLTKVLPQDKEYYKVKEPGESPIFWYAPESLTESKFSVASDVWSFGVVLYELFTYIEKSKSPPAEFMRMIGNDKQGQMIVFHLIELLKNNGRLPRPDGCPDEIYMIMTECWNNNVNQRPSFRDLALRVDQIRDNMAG

Take `CC[C@H](C(=O)NC1CC1)N1Cc2ccnc3[nH]cc(c23)C1=O` [Example 65, (R)—N-cyclopropyl-2-(3-oxopyrrolo[4,3,2-de][2,6]naphthyridin-4(1H,3H,5H)-yl)butanamide]: the results for the IC50 at JAK2 and at JAK3 were 6310 nM and 2000 nM, respectively.
The like results for `CC[C@H](C(=O)NCC(C)C)N1Cc2ccnc3[nH]cc(c23)C1=O` [Example 67, (R)—N-isobutyl-2-(3-oxopyrrolo[4,3,2-de][2,6]naphthyridin-4(1H,3H,5H)-yl)butanamide] were, in that order, 5010 nM and 251 nM.
On the same counts, the results for `O=C1c2c[nH]c3nccc(c23)CN1C1(C(=O)NC2CCCC2)CCCC1` [Example 31, N-cyclopentyl-1-(3-oxopyrrolo[4,3,2-de][2,6]naphthyridin-4(1H,3H,5H)-yl)cyclopentanecarboxamide] are 20000 nM and 20000 nM.
With `CC(C)[C@H](C(=O)N1CC(C#N)C1)N1Cc2c(Cl)cnc3[nH]cc(c23)C1=O` [Example 39, (R)-1-(2-(6-chloro-3-oxopyrrolo[4,3,2-de][2,6]naphthyridin-4(1H,3H,5H)-yl)-3-methylbutanoyl)azetidine-3-carbonitrile], the IC50 is 31.6 nM on JAK2 and 2 nM at JAK3.
The like results for `CC(C)[C@H](C(=O)N1CC(F)(F)C1)N1Cc2c(F)cnc3[nH]cc(c23)C1=O` [Example 76, (R)-4-(1-(3,3-difluoroazetidin-1-yl)-3-methyl-1-oxobutan-2-yl)-6-fluoro-4,5-dihydropyrrolo[4,3,2-de][2,6]naphthyridin-3(1 H)-one] were, in that order, 1000 nM and 63.1 nM.
Take `O=C1c2ccnc3[nH]cc(c23)CN1CC1CCNC1` (stereo not drawn) [Example 13, 4-(pyrrolidin-3-ylmethyl)-3,4-dihydropyrrolo[4,3,2-de][2,6]naphthyridine-5(1H)-one]: the IC50 is 5010 nM at JAK2 and 3160 nM on JAK3.
On the same counts, the results for `O=C(NC1CCCC1)[C@@H](C1CCCC1)N1Cc2ccnc3[nH]cc(c23)C1=O` [Example 27, (R)—N,2-dicyclopentyl-2-(3-oxopyrrolo[4,3,2-de][2,6]naphthyridin-4(1H,3H,5H)-yl)acetamide] are 3160 nM and 251 nM.
On the same counts, the results for `CC[C@H](C(=O)N1CCC(C(C)(C)O)CC1)N1Cc2ccnc3[nH]cc(c23)C1=O` [Example 62, (R)-4-(1-(4-(2-hydroxypropan-2-yl)piperidin-1-yl)-1-oxobutan-2-yl)-4,5-dihydropyrrolo[4,3,2-de][2,6]naphthyridin-3(1 H)-one] are 12600 nM and 1580 nM.
On the same counts, the results for `CC(C)(C)[C@H](C(=O)NCCC#N)N1Cc2c(Cl)cnc3[nH]cc(c23)C1=O` [Example 40, (R)-2-(6-chloro-3-oxopyrrolo[4,3,2-de][2,6]naphthyridin-4(1H,3H,5H)-yl)-N-(2-cyanoethyl)-3,3-dimethylbutanamide] are 1260 nM and 50.1 nM.
